From ChEMBL document CHEMBL3885881, “DrugMatrix”

Organism: Rattus norvegicus
Assay: DrugMatrix - Regimen: Daily Repeat
Assay type: toxicity, organism-based, Sprague-Dawley
Set-up: regimen Daily Repeat, gender Male, age 6-8 weeks
Conditions: in vivo, po, route oral GAVAGE, vehicle .5 % CMC; for ABSOLUTE BASOPHIL / ABSOLUTE EOSINOPHIL / ABSOLUTE LYMPHOCYTE / ABSOLUTE MONOCYTE / ABSOLUTE SEGMENTED NEUTROPHIL / BASOPHIL / EOSINOPHIL / ERYTHROCYTE COUNT / HEMATOCRIT / HEMOGLOBIN / LEUKOCYTE COUNT / LYMPHOCYTE / MEAN CORPUSCULAR HEMOGLOBIN / MEAN CORPUSCULAR HEMOGLOBIN CONCENTRATION / MEAN CORPUSCULAR VOLUME / MONOCYTE / NEUTROPHIL / NUCLEATED RED BLOOD CELLS / PLATELET COUNT: tissue Blood; for ALANINE AMINOTRANSFERASE / ALBUMIN / ALKALINE PHOSPHATASE / ASPARTATE AMINOTRANSFERASE / BLOOD UREA NITROGEN / CARBON DIOXIDE / CHLORIDE / CHOLESTEROL / CREATINE PHOSPHOKINASE / CREATININE / GLUCOSE / LACTATE DEHYDROGENASE / LIPASE / PHOSPHORUS / POTASSIUM / SODIUM / TOTAL BILIRUBIN / TOTAL PROTEIN / URIC ACID: tissue Plasma
[1] = 100 mg/kg, 120 h, dose level Low, time 5 day
[2] = 1500 mg/kg, 72 h, dose level High, time 3 day
[3] = 1500 mg/kg, 120 h, dose level High, time 5 day

## O=C(O)CCc1nc(-c2ccccc2)c(-c2ccccc2)o1 [OXAPROZIN]
[1]
  ABSOLUTE BASOPHIL: 0 CELLS/uL
  ABSOLUTE EOSINOPHIL: 50.33 CELLS/uL
  ABSOLUTE LYMPHOCYTE: 11457 CELLS/uL
  ABSOLUTE MONOCYTE: 176 CELLS/uL
  ABSOLUTE SEGMENTED NEUTROPHIL: 1916.67 CELLS/uL
  BASOPHIL: 0%
  EOSINOPHIL: 0.33%
  ERYTHROCYTE COUNT: 5.42 x10E6/uL
  HEMATOCRIT: 34.23%
  HEMOGLOBIN: 13.93 G/DL
  LEUKOCYTE COUNT: 13.6 x10E3/uL
  LYMPHOCYTE: 84%
  MEAN CORPUSCULAR HEMOGLOBIN: 25.7 pg
  MEAN CORPUSCULAR HEMOGLOBIN CONCENTRATION: 40.67 G/DL
  MEAN CORPUSCULAR VOLUME: 63.1 fL
  MONOCYTE: 1.33%
  NEUTROPHIL: 14.33%
  NUCLEATED RED BLOOD CELLS: 0 /100WBC
  PLATELET COUNT: 1354 x10E3/uL
  ALANINE AMINOTRANSFERASE: 54.67 u/L
  ALBUMIN: 4.3 G/DL
  ALKALINE PHOSPHATASE: 418.33 u/L
  ASPARTATE AMINOTRANSFERASE: 81.67 u/L
  BLOOD UREA NITROGEN: 16 mg/dL
  CARBON DIOXIDE: 26.67 mmol/L
  CHLORIDE: 102.67 MEQ/L
  CHOLESTEROL: 57.67 mg/dL
  CREATINE PHOSPHOKINASE: 284.33 u/L
  CREATININE: 0.2 mg/dL
  GLUCOSE: 154 mg/dL
  LACTATE DEHYDROGENASE: 102.67 u/L
  LIPASE: 9.33 u/L
  PHOSPHORUS: 12.87 mg/dL
  POTASSIUM: 6.84 MEQ/L
  SODIUM: 145.4 MEQ/L
  TOTAL BILIRUBIN: 0.23 mg/dL
  TOTAL PROTEIN: 6.2 G/DL
  URIC ACID: 1.83 mg/dL
[2]
  ABSOLUTE BASOPHIL: 0 CELLS/uL
  ABSOLUTE EOSINOPHIL: 0 CELLS/uL
  ABSOLUTE LYMPHOCYTE: 11713.67 CELLS/uL
  ABSOLUTE MONOCYTE: 379.33 CELLS/uL
  ABSOLUTE SEGMENTED NEUTROPHIL: 2140.33 CELLS/uL
  BASOPHIL: 0%
  EOSINOPHIL: 0%
  ERYTHROCYTE COUNT: 5.87 x10E6/uL
  HEMATOCRIT: 37.03%
  HEMOGLOBIN: 14.47 G/DL
  LEUKOCYTE COUNT: 14.23 x10E3/uL
  LYMPHOCYTE: 82.33%
  MEAN CORPUSCULAR HEMOGLOBIN: 24.63 pg
  MEAN CORPUSCULAR HEMOGLOBIN CONCENTRATION: 39.07 G/DL
  MEAN CORPUSCULAR VOLUME: 63.17 fL
  MONOCYTE: 2.67%
  NEUTROPHIL: 15%
  NUCLEATED RED BLOOD CELLS: 0 /100WBC
  PLATELET COUNT: 1318.33 x10E3/uL
  ALANINE AMINOTRANSFERASE: 83 u/L
  ALBUMIN: 4.77 G/DL
  ALKALINE PHOSPHATASE: 581 u/L
  ASPARTATE AMINOTRANSFERASE: 86.67 u/L
  BLOOD UREA NITROGEN: 17.33 mg/dL
  CARBON DIOXIDE: 31.33 mmol/L
  CHLORIDE: 99.33 MEQ/L
  CHOLESTEROL: 70 mg/dL
  CREATINE PHOSPHOKINASE: 206 u/L
  CREATININE: 0.24 mg/dL
  GLUCOSE: 118 mg/dL
  LACTATE DEHYDROGENASE: 247.33 u/L
  LIPASE: 8.67 u/L
  PHOSPHORUS: 11.17 mg/dL
  POTASSIUM: 5.96 MEQ/L
  SODIUM: 145.9 MEQ/L
  TOTAL BILIRUBIN: 0.3 mg/dL
  TOTAL PROTEIN: 5.73 G/DL
  URIC ACID: 1.37 mg/dL
[3]
  ABSOLUTE BASOPHIL: 0 CELLS/uL
  ABSOLUTE EOSINOPHIL: 0 CELLS/uL
  ABSOLUTE LYMPHOCYTE: 19502.67 CELLS/uL
  ABSOLUTE MONOCYTE: 68 CELLS/uL
  ABSOLUTE SEGMENTED NEUTROPHIL: 3096 CELLS/uL
  BASOPHIL: 0%
  EOSINOPHIL: 0%
  ERYTHROCYTE COUNT: 5.71 x10E6/uL
  HEMATOCRIT: 35.9%
  HEMOGLOBIN: 14.6 G/DL
  LEUKOCYTE COUNT: 22.67 x10E3/uL
  LYMPHOCYTE: 86.33%
  MEAN CORPUSCULAR HEMOGLOBIN: 25.63 pg
  MEAN CORPUSCULAR HEMOGLOBIN CONCENTRATION: 40.7 G/DL
  MEAN CORPUSCULAR VOLUME: 63 fL
  MONOCYTE: 0.33%
  NEUTROPHIL: 13.33%
  NUCLEATED RED BLOOD CELLS: 0.33 /100WBC
  PLATELET COUNT: 1504 x10E3/uL
  ALANINE AMINOTRANSFERASE: 136.67 u/L
  ALBUMIN: 4.57 G/DL
  ALKALINE PHOSPHATASE: 427.67 u/L
  ASPARTATE AMINOTRANSFERASE: 109.67 u/L
  BLOOD UREA NITROGEN: 17.67 mg/dL
  CARBON DIOXIDE: 25.33 mmol/L
  CHLORIDE: 98.67 MEQ/L
  CHOLESTEROL: 83.67 mg/dL
  CREATINE PHOSPHOKINASE: 243 u/L
  CREATININE: 0.35 mg/dL
  GLUCOSE: 126 mg/dL
  LACTATE DEHYDROGENASE: 170.67 u/L
  LIPASE: 11.33 u/L
  PHOSPHORUS: 11.23 mg/dL
  POTASSIUM: 6.06 MEQ/L
  SODIUM: 143.63 MEQ/L
  TOTAL BILIRUBIN: 0.27 mg/dL
  TOTAL PROTEIN: 6 G/DL
  URIC ACID: 1.83 mg/dL
